Measured values: PubChem BioAssay AID1918942 (Molecular Pharmacology Branch, DTP, NCI, 2023)

System: 743489-274-T-PDC complex spheroid viability
Assay: Anticancer human tumor 743489-274-T-PDC patient-derived renal cell carcinoma cell line growth inhibition
Conditions: for IC50: curve of first compound; for viability, T/C: stronger effect = lower value
Summary of the method: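 Complex spheroids of tumor cells with HUVEC and human MSCs, exposed to iadademstat combined with other agents. Each agent tested in half-log steps from near clinical Cmax (else 10 microM top), DMSO ≤0.25%.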

[1] = second compound 0.1 µM, first compound 0.00949 µM
[2] = second compound 0.1 µM, first compound 0.03 µM
[3] = second compound 0.1 µM, first compound 0.0949 µM
[4] = second compound 0.1 µM, first compound 0.3 µM
[5] = second compound 0.316 µM, first compound 0.00949 µM
[6] = second compound 0.316 µM, first compound 0.03 µM
[7] = second compound 0.316 µM, first compound 0.0949 µM
[8] = second compound 0.316 µM, first compound 0.3 µM
[9] = second compound 1 µM, first compound 0.00949 µM
[10] = second compound 1 µM, first compound 0.03 µM
[11] = second compound 1 µM, first compound 0.0949 µM
[12] = second compound 1 µM, first compound 0.3 µM
[13] = second compound 3.16 µM, first compound 0.00949 µM
[14] = second compound 3.16 µM, first compound 0.03 µM
[15] = second compound 3.16 µM, first compound 0.0949 µM
[16] = second compound 3.16 µM, first compound 0.3 µM
[17] = second compound 10 µM, first compound 0.00949 µM
[18] = second compound 10 µM, first compound 0.03 µM
[19] = second compound 10 µM, first compound 0.0949 µM
[20] = second compound 10 µM, first compound 0.3 µM
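Further: spheroids exposed to compounds for 7 days before readout.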
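Wherever viability, T/C is given: 100% = DMSO vehicle control wells.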

Which results are given for `CCN(c1cc(-c2ccc(CN3CCOCC3)cc2)cc(C(=O)NCc2c(C)cc(C)[nH]c2=O)c1C)C1CCOCC1` + NC1CCC(NC2CC2c2ccccc2)CC1?
IC50 (second compound 0.1 µM): > 3 µM; IC50 (second compound 0.316 µM): > 3 µM; IC50 (second compound 1 µM): > 3 µM; IC50 (second compound 3.16 µM): > 3 µM; IC50 (second compound 10 µM): > 3 µM; viability, T/C [1]: 104%; viability, T/C [2]: 103%; viability, T/C [3]: 101%; viability, T/C [4]: 102%; viability, T/C (second compound 0.1 µM, first compound 0.949 µM): 107%; viability, T/C (second compound 0.1 µM, first compound 3 µM): 104%; viability, T/C [5]: 91.1%; viability, T/C [6]: 98.5%; viability, T/C [7]: 97.4%; viability, T/C [8]: 96.2%; viability, T/C (second compound 0.316 µM, first compound 0.949 µM): 104%; viability, T/C (second compound 0.316 µM, first compound 3 µM): 102%; viability, T/C [9]: 99.8%; viability, T/C [10]: 106%; viability, T/C [11]: 101%; viability, T/C [12]: 105%; viability, T/C (second compound 1 µM, first compound 0.949 µM): 104%; viability, T/C (second compound 1 µM, first compound 3 µM): 106%; viability, T/C [13]: 107%; viability, T/C [14]: 106%; viability, T/C [15]: 110%; viability, T/C [16]: 105%; viability, T/C (second compound 3.16 µM, first compound 0.949 µM): 113%; viability, T/C (second compound 3.16 µM, first compound 3 µM): 111%; viability, T/C [17]: 109%; viability, T/C [18]: 107%; viability, T/C [19]: 108%; viability, T/C [20]: 95.7%; viability, T/C (second compound 10 µM, first compound 0.949 µM): 100%; viability, T/C (second compound 10 µM, first compound 3 µM): 104%

For `Cn1ncnc1C1c2n[nH]c(=O)c3cc(F)cc(c23)NC1c1ccc(F)cc1` (stereo not given) + NC1CCC(NC2CC2c2ccccc2)CC1, which IC50 (second compound 0.1 µM) is on record?
Its IC50 is over 0.1 µM.

What about the IC50 (second compound 0.316 µM) of the same compound?
The IC50 was over 0.1 µM.

What about the IC50 (second compound 1 µM) of the same compound?
The IC50 was over 0.1 µM.

What about the IC50 (second compound 3.16 µM) of the same compound?
The IC50 was over 0.1 µM.

What about the IC50 (second compound 10 µM) of the same compound?
Its IC50 is over 0.1 µM.

And the viability, T/C (second compound 0.1 µM, first compound 0.000316 µM)?
Its viability, T/C is 121%.

What about the viability, T/C (second compound 0.1 µM, first compound 0.001 µM) of the same compound?
The viability, T/C was 99.1%.

And the viability, T/C (second compound 0.1 µM, first compound 0.00316 µM)?
Its viability, T/C is 100%.

And the viability, T/C (second compound 0.1 µM, first compound 0.01 µM)?
Its viability, T/C is 103%.

And the viability, T/C (second compound 0.1 µM, first compound 0.0316 µM)?
The viability, T/C was 101%.

What about the viability, T/C (second compound 0.1 µM, first compound 0.1 µM) of the same compound?
Its viability, T/C is 86.2%.

And the viability, T/C (second compound 0.316 µM, first compound 0.000316 µM)?
The viability, T/C was 105%.

And the viability, T/C (second compound 0.316 µM, first compound 0.001 µM)?
The viability, T/C was 102%.

What about the viability, T/C (second compound 0.316 µM, first compound 0.00316 µM) of the same compound?
The viability, T/C was 93.6%.

What about the viability, T/C (second compound 0.316 µM, first compound 0.01 µM) of the same compound?
Its viability, T/C is 115%.

What about the viability, T/C (second compound 0.316 µM, first compound 0.0316 µM) of the same compound?
Its viability, T/C is 92%.

And the viability, T/C (second compound 0.316 µM, first compound 0.1 µM)?
Its viability, T/C is 103%.

What about the viability, T/C (second compound 1 µM, first compound 0.000316 µM) of the same compound?
Its viability, T/C is 104%.

And the viability, T/C (second compound 1 µM, first compound 0.001 µM)?
The viability, T/C was 108%.

And the viability, T/C (second compound 1 µM, first compound 0.00316 µM)?
The viability, T/C was 90.2%.

And the viability, T/C (second compound 1 µM, first compound 0.01 µM)?
Its viability, T/C is 81.7%.

And the viability, T/C (second compound 1 µM, first compound 0.0316 µM)?
Its viability, T/C is 90.2%.

What about the viability, T/C (second compound 1 µM, first compound 0.1 µM) of the same compound?
The viability, T/C was 84%.

What about the viability, T/C (second compound 3.16 µM, first compound 0.000316 µM) of the same compound?
The viability, T/C was 101%.

And the viability, T/C (second compound 3.16 µM, first compound 0.001 µM)?
Its viability, T/C is 101%.

And the viability, T/C (second compound 3.16 µM, first compound 0.00316 µM)?
Its viability, T/C is 101%.

What about the viability, T/C (second compound 3.16 µM, first compound 0.01 µM) of the same compound?
The viability, T/C was 103%.

And the viability, T/C (second compound 3.16 µM, first compound 0.0316 µM)?
The viability, T/C was 101%.

What about the viability, T/C (second compound 3.16 µM, first compound 0.1 µM) of the same compound?
The viability, T/C was 94%.

And the viability, T/C (second compound 10 µM, first compound 0.000316 µM)?
The viability, T/C was 111%.

And the viability, T/C (second compound 10 µM, first compound 0.001 µM)?
The viability, T/C was 98%.

And the viability, T/C (second compound 10 µM, first compound 0.00316 µM)?
Its viability, T/C is 91.7%.

And the viability, T/C (second compound 10 µM, first compound 0.01 µM)?
The viability, T/C was 103%.

What about the viability, T/C (second compound 10 µM, first compound 0.0316 µM) of the same compound?
The viability, T/C was 90.4%.

And the viability, T/C (second compound 10 µM, first compound 0.1 µM)?
The viability, T/C was 97.7%.

With `Nc1ncn(C2CC(O)C(CO)S2)c(=O)n1` (stereo not given) + NC1CCC(NC2CC2c2ccccc2)CC1 as the compound, how does the IC50 (second compound 0.1 µM) read?
Its IC50 is over 0.3 µM.

And the IC50 (second compound 0.316 µM)?
Its IC50 is over 0.3 µM.

And the IC50 (second compound 1 µM)?
Its IC50 is over 0.3 µM.

And the IC50 (second compound 3.16 µM)?
Its IC50 is over 0.3 µM.

What about the IC50 (second compound 10 µM) of the same compound?
Its IC50 is over 0.3 µM.

What about the viability, T/C (second compound 0.1 µM, first compound 0.000949 µM) of the same compound?
Its viability, T/C is 116%.

What about the viability, T/C (second compound 0.1 µM, first compound 0.003 µM) of the same compound?
Its viability, T/C is 95.5%.

What about the viability, T/C [1] of the same compound?
The viability, T/C was 104%.

What about the viability, T/C [2] of the same compound?
The viability, T/C was 91.1%.

What about the viability, T/C [3] of the same compound?
Its viability, T/C is 89.6%.

And the viability, T/C [4]?
Its viability, T/C is 80.5%.

What about the viability, T/C (second compound 0.316 µM, first compound 0.000949 µM) of the same compound?
Its viability, T/C is 106%.

What about the viability, T/C (second compound 0.316 µM, first compound 0.003 µM) of the same compound?
The viability, T/C was 105%.

What about the viability, T/C [5] of the same compound?
The viability, T/C was 120%.

And the viability, T/C [6]?
Its viability, T/C is 110%.

And the viability, T/C [7]?
Its viability, T/C is 95.6%.

What about the viability, T/C [8] of the same compound?
Its viability, T/C is 103%.

What about the viability, T/C (second compound 1 µM, first compound 0.000949 µM) of the same compound?
Its viability, T/C is 118%.

And the viability, T/C (second compound 1 µM, first compound 0.003 µM)?
The viability, T/C was 112%.

What about the viability, T/C [9] of the same compound?
Its viability, T/C is 107%.

What about the viability, T/C [10] of the same compound?
The viability, T/C was 97.6%.

What about the viability, T/C [11] of the same compound?
Its viability, T/C is 87.6%.

And the viability, T/C [12]?
The viability, T/C was 87%.

And the viability, T/C (second compound 3.16 µM, first compound 0.000949 µM)?
The viability, T/C was 112%.

And the viability, T/C (second compound 3.16 µM, first compound 0.003 µM)?
Its viability, T/C is 116%.

What about the viability, T/C [13] of the same compound?
Its viability, T/C is 96.8%.

What about the viability, T/C [14] of the same compound?
Its viability, T/C is 108%.

What about the viability, T/C [15] of the same compound?
Its viability, T/C is 88.4%.

What about the viability, T/C [16] of the same compound?
The viability, T/C was 102%.

And the viability, T/C (second compound 10 µM, first compound 0.000949 µM)?
The viability, T/C was 113%.

What about the viability, T/C (second compound 10 µM, first compound 0.003 µM) of the same compound?
Its viability, T/C is 125%.

What about the viability, T/C [17] of the same compound?
Its viability, T/C is 101%.

And the viability, T/C [18]?
The viability, T/C was 104%.

And the viability, T/C [19]?
Its viability, T/C is 93.4%.

And the viability, T/C [20]?
The viability, T/C was 98%.
